Values of other authors in publication PMC8025584, “Identification of multipotent drugs for COVID-19 therapeutics with the evaluation of their SARS-CoV2 inhibitory activity” (Computational and Structural Biotechnology Journal, 2021).
Counter-ions that a name gives are not always drawn. Like-named read-outs stand apart in the source and are kept apart here. Where no end group is shown, it is not given here.

Test system: differentially expressed human proteins in COVID-19
Conditions: cited from earlier work
[1] = gene TNF, drug-gene interaction listed in DGIdb export, ref DGIdb
[2] = gene CACNA1A, drug-gene interaction listed in DGIdb export, ref DGIdb
[3] = gene CCR1, drug-gene interaction listed in DGIdb export, ref DGIdb
[4] = gene HCK, drug-gene interaction listed in DGIdb export, ref DGIdb

CC(/C=C/[C@@H]1C[C@]1(C)c1ccc2c(c1)C(C)(C)CCC2(C)C)=C\C(=O)O [IRX-4204]
interaction_types (gene RXRB, ref DGIdb): agonist

O=S(=O)(N[C@H](CO)C(C(F)(F)F)C(F)(F)F)c1ccc(Cl)s1 [BEGACESTAT]
interaction_types (gene PSENEN, ref DGIdb): inhibitor

INTERLEUKIN 15, RECOMBINANT NON-GLYCOSYLATED
interaction_types (gene IL2RG, ref DGIdb): agonist

NS(=O)(=O)c1cc2c(cc1Cl)N=CNS2(=O)=O [CHLOROTHIAZIDE]
interaction_types (gene CA1, ref DGIdb): inhibitor

Nc1cc(-c2ccncc2)c[nH]c1=O [INAMRINONE]
interaction_types [1]: inhibitor

POLAPREZINC
interaction_types [1]: inhibitor

CC(C)[C@H](O)C(=O)N[C@@H](C)C(=O)N[C@@H]1C(=O)N(C)CCc2ccccc21
interaction_types (gene PSENEN, ref DGIdb): inhibitor

CCC[C@H](Nc1nc(-c2ccc(NC(=O)NCC)c(OC)c2)ncc1C)c1cccnc1 [LEXIBULIN]
interaction_types (gene TUBA4A, ref DGIdb): inhibitor

CCC[C@@H](C)C[C@H](N)CC(=O)O [IMAGABALIN]
interaction_types [2]: modulator

COc1cc(N2CCN(C(=O)Cn3nc(-c4ncc[nH]4)c4cccnc43)CC2)ccc1Cl [CCX354]
interaction_types [3]: antagonist

CC(=O)O[C@H]1C(=O)[C@@]2(C)[C@H]([C@H](OC(=O)c3ccccc3)[C@]3(O)C[C@H](OC(=O)[C@H](O)[C@@H](NC(=O)c4ccccc4)c4ccccc4)C(C)=C1C3(C)C)[C@]1(OC(C)=O)CO[C@@H]1C[C@@H]2O [Paclitaxel, reference compound]
interaction_types (gene TUBA4A, ref DGIdb): inhibitor

CC(C)CCC[C@@H](C)[C@H]1CC[C@H]2[C@@H]3CC=C4C[C@@H](O)CC[C@]4(C)[C@H]3CC[C@]12C [CHOLESTEROL]
interaction_types (gene CLEC4E, ref DGIdb): ligand

COc1cc(C)c(/C=C/C(C)=C/C=C/C(C)=C/C(=O)O)c(C)c1C [ACITRETIN]
interaction_types (gene RXRB, ref DGIdb): agonist

Cc1ccc(C(=O)Nc2ccc(S(=O)(=O)O)c3cc(S(=O)(=O)O)cc(S(=O)(=O)O)c23)cc1NC(=O)c1cccc(NC(=O)Nc2cccc(C(=O)Nc3cc(C(=O)Nc4ccc(S(=O)(=O)O)c5cc(S(=O)(=O)O)cc(S(=O)(=O)O)c45)ccc3C)c2)c1 [SURAMIN]
interaction_types (gene P2RY13, ref DGIdb): antagonist

C[C@@H](C(=O)O)c1ccc(-c2ccccc2)c(F)c1 [TARENFLURBIL]
interaction_types (gene PSENEN, ref DGIdb): modulator

CC(=O)O[C@@]12CO[C@@H]1C[C@H](O)[C@@]1(C)C(=O)[C@H](O)C3=C(C)[C@@H](OC(=O)[C@H](O)[C@@H](NC(=O)OC(C)(C)C)c4ccccc4)C[C@@](O)([C@@H](OC(=O)c4ccccc4)[C@H]21)C3(C)C [DOCETAXEL, reference compound]
interaction_types (gene TUBA4A, ref DGIdb): inhibitor

CCN(CC)CCCC(C)Nc1ccnc2cc(Cl)ccc12 (centres unmarked) [CHLOROQUINE]
interaction_types [1]: inhibitor

CN(C)CC/C=C1/c2ccccc2COc2ccc(CC(=O)O)cc21 [OLOPATADINE, reference compound]
interaction_types (gene S100A12, ref DGIdb): antagonist

NS(=O)(=O)c1cc2c(cc1Cl)NCNS2(=O)=O [HYDROCHLOROTHIAZIDE, reference compound]
interaction_types (gene CA1, ref DGIdb): inhibitor

REGRAMOSTIM
interaction_types (gene CSF2RB, ref DGIdb): agonist

NADROPARIN
interaction_types (gene FOS, ref DGIdb): inhibitor

Nc1ncnc2c1ncn2[C@@H]1O[C@H](COP(=O)(O)OP(=O)(O)O)[C@@H](O)[C@H]1O [ADENOSINE DIPHOSPHATE]
interaction_types (gene P2RY13, ref DGIdb): agonist

CN1CCC[C@H]1c1cccnc1 [NICOTINE]
interaction_types: inhibitor

CN1C(CCl)Nc2cc(Cl)c(S(N)(=O)=O)cc2S1(=O)=O (centres unmarked) [METHYCLOTHIAZIDE]
interaction_types (gene CA1, ref DGIdb): inhibitor

CCC1=C[C@@H]2CN(C1)Cc1c([nH]c3ccccc13)[C@@](C(=O)OC)(c1cc3c(cc1OC)N(C)[C@H]1[C@@](O)(C(=O)OC)[C@H](OC(C)=O)[C@]4(CC)C=CCN5CC[C@]31[C@@H]54)C2 [VINORELBINE TARTRATE]
interaction_types (gene TUBA4A, ref DGIdb): inhibitor

NCCc1c[nH]cn1 [HISTAMINE]
interaction_types: activator

CSCC[C@@H]1NC(=O)[C@H](CC(C)C)NC(=O)[C@H](CCCNC(=N)N)NC(=O)[C@H](CO)NC(=O)[C@@H]2CSSC[C@@H]3NC(=O)[C@H](CO)NC(=O)CNC(=O)[C@H]([C@@H](C)O)NC(=O)[C@H](CSSC[C@H](N)C(=O)N[C@@H](CCCCN)C(=O)NCC(=O)N[C@@H](CCCCN)C(=O)NCC(=O)N[C@@H](C)C(=O)N[C@@H](CCCCN)C(=O)N2)NC(=O)[C@H](CSSC[C@@H](C(N)=O)NC(=O)[C@H](CCCCN)NC(=O)CNC(=O)[C@H](CO)NC(=O)[C@H](CCCNC(=N)N)NC3=O)NC(=O)[C@H](CC(=O)O)NC(=O)[C@H](Cc2ccc(O)cc2)NC1=O [ZICONOTIDE]
interaction_types: inhibitor

COc1ccc(CCN(C)CCCC(C#N)(c2ccc(OC)c(OC)c2)C(C)C)cc1OC (centres unmarked)
interaction_types [2]: inhibitor

CN(C)C(=O)C(CCN1CCC(O)(c2ccc(Cl)cc2)CC1)(c1ccccc1)c1ccccc1 [LOPERAMIDE]
interaction_types [2]: inhibitor

CC(C)c1ccc2oc3nc(N)c(C(=O)O)cc3c(=O)c2c1 [AMLEXANOX, reference compound]
interaction_types (gene S100A12, ref DGIdb): antagonist | interaction_types (gene S100A13, drug-gene interaction listed in DGIdb export, ref DGIdb): antagonist

CC1=C(/C=C/C(C)=C/C=C/C(C)=C/C(=O)O)C(C)(C)CCC1 [TRETINOIN, reference compound]
interaction_types (gene RXRB, ref DGIdb): agonist

DENENICOKIN
interaction_types (gene IL2RG, ref DGIdb): agonist

CNC(=O)[C@@H](NC(=O)[C@H](CC(C)C)[C@H](O)C(=O)NO)C(C)(C)C
interaction_types (gene MMP8, ref DGIdb): inhibitor

NS(=O)(=O)c1cc2c(cc1Cl)N=C(CSCc1ccccc1)NS2(=O)=O [BENZTHIAZIDE, reference compound]
interaction_types (gene CA1, ref DGIdb): inhibitor

CCCCCc1cccc(CC(=O)O)c1 [SETOGEPRAM]
interaction_types (gene GPR84, ref DGIdb): antagonist

CN1CC[C@]23c4c5ccc(O)c4O[C@H]2[C@@H](O)C=C[C@H]3[C@H]1C5 [MORPHINE]
interaction_types: activator

C[C@H]1c2cccc(O)c2C(=O)C2=C(O)[C@]3(O)C(=O)C(C(N)=O)=C(O)[C@@H](N(C)C)[C@@H]3[C@@H](O)[C@@H]21 [DOXYCYCLINE]
interaction_types (gene MMP8, ref DGIdb): inhibitor

O=c1cc(-c2ccccc2)oc2cc(O)cc(O)c12 [CHRYSIN]
interaction_types (gene CYP1A1, ref DGIdb): inhibitor

THROMBIN
interaction_types (gene F5, drug-gene interaction listed in DGIdb export, ref DGIdb): activator

C=CC(=O)N1CCC[C@@H](n2nc(-c3ccc(Oc4ccccc4)cc3)c3c(N)ncnc32)C1 [IBRUTINIB]
interaction_types [4]: inhibitor

O=C1C[C@@H](c2ccc(O)cc2)Oc2cc(O)cc(O)c21 [NARINGENIN]
interaction_types (gene CYP19A1, ref DGIdb): inhibitor

COc1cc(Nc2c(C#N)cnc3cc(OCCCN4CCN(C)CC4)c(OC)cc23)c(Cl)cc1Cl [BOSUTINIB]
interaction_types [4]: inhibitor

NS(=O)(=O)c1nnc(NS(=O)(=O)c2ccccc2)s1 [BENZOLAMIDE]
interaction_types (gene CA1, ref DGIdb): inhibitor

CC(C)COCC(CN(Cc1ccccc1)c1ccccc1)N1CCCC1 (centres unmarked) [BEPRIDIL]
interaction_types [2]: inhibitor

LVVYPWT [SPINORPHIN]
interaction_types (gene FPR1, ref DGIdb): antagonist

Nc1ncnc2c1ncn2[C@@H]1O[C@H](CO)[C@@H](O)[C@H]1O [ADENOSINE, reference compound]
interaction_types (gene PI4K2B, ref DGIdb): inhibitor

COc1cc([C@H]2C(C#N)=C(N)Oc3c2ccc(N)c3N)cc(Br)c1OC [CROLIBULIN]
interaction_types (gene TUBA4A, ref DGIdb): inhibitor

O=P(O)(O)C(Cl)(Cl)P(=O)(O)O [CLODRONIC ACID]
interaction_types (gene SLC25A4, ref DGIdb): inhibitor

LIPEGFILGRASTIM
interaction_types (gene CSF3R, ref DGIdb): agonist

CC(C)c1cc(CNc2nc(Nc3cc(C4CC4)[nH]n3)cc(N3CCN(C)CC3)n2)on1 [XL-228]
interaction_types (gene FGR, ref DGIdb): inhibitor | interaction_types [4]: inhibitor

O=C1Nc2ccccc2/C1=C1/Nc2ccccc2C1=O [INDIRUBIN]
interaction_types: substrate

CN(CCO)CC(O)Cn1cnc2c1c(=O)n(C)c(=O)n2C (centres unmarked) [XANTHINOL]
interaction_types (gene RPL3, drug-gene interaction listed in DGIdb export, ref DGIdb): binder

CCS(=O)(=O)N1CC(CC#N)(n2cc(-c3ncnc4[nH]ccc34)cn2)C1 [BARICITINIB]
interaction_types (gene GAK, drug-gene interaction listed in DGIdb export, ref DGIdb): inhibitor | interaction_types (gene PTK2B, ref DGIdb): inhibitor

C=C(c1ccc(C(=O)O)cc1)c1cc2c(cc1C)C(C)(C)CCC2(C)C [BEXAROTENE, reference compound]
interaction_types (gene RXRB, ref DGIdb): activator¦agonist

COC(=O)c1ccc2c(c1)NC(=O)/C2=C(\Nc1ccc(N(C)C(=O)CN2CCN(C)CC2)cc1)c1ccccc1 [NINTEDANIB, reference compound]
interaction_types (gene FGR, ref DGIdb): inhibitor | interaction_types [4]: inhibitor

CNC(=O)c1cc(Cl)c(OC(C)(C)C(=O)O)cc1OC[C@@H](O)CN1CCC2(CC1)Cc1cc(Cl)ccc1O2 [AZD4818]
interaction_types [3]: antagonist

CCCCCC/C=C\CCCCCCCCCC(=O)N[C@H]1[C@H](OC[C@H]2O[C@H](OP(=O)(O)O)[C@H](NC(=O)CC(=O)CCCCCCCCCCC)[C@@H](OCCCCCCCCCC)[C@@H]2O)O[C@H](COC)[C@@H](OP(=O)(O)O)[C@@H]1OCC[C@@H](CCCCCCC)OC [ERITORAN TETRASODIUM]
interaction_types (gene LY96, ref DGIdb): antagonist

CCC1(c2ccc(N)cc2)CCC(=O)NC1=O (centres unmarked) [AMINOGLUTETHIMIDE, reference compound]
interaction_types (gene CYP19A1, ref DGIdb): inhibitor

CCN[C@H]1CN(CCCOC)S(=O)(=O)c2sc(S(N)(=O)=O)cc21 [BRINZOLAMIDE]
interaction_types (gene CA1, ref DGIdb): inhibitor

COc1cc2nc(N3CCN(C(=O)C4CCCO4)CC3)nc(N)c2cc1OC (centres unmarked) [TERAZOSIN]
interaction_types (gene KCNH7, ref DGIdb): inhibitor

NS(=O)(=O)Cc1noc2ccccc12 [ZONISAMIDE]
interaction_types (gene CA1, ref DGIdb): inhibitor
